According to ChEMBL document CHEMBL1138586 (Bioorg Med Chem Lett, 2009):

Key:
Coagulation factor X = Coagulation factor X (Homo sapiens, UniProt P00742); assay: Inhibition of Factor 10a
[1] = Oral bioavailability in rat; type: ADME, organism-based; settings: in vivo
[2] = Fraction unbound in human plasma at 10 uM after 30 mins; type: ADME, cell-free
[3] = target: T1, Voltage-gated inwardly rectifying potassium channel KCNH2 (Homo sapiens, UniProt Q12809); assay: Inhibition of human ERG expressed in HEK293 cells by patch-clamp method; type: cell-based
T1 sequence (Q12809 whole entry): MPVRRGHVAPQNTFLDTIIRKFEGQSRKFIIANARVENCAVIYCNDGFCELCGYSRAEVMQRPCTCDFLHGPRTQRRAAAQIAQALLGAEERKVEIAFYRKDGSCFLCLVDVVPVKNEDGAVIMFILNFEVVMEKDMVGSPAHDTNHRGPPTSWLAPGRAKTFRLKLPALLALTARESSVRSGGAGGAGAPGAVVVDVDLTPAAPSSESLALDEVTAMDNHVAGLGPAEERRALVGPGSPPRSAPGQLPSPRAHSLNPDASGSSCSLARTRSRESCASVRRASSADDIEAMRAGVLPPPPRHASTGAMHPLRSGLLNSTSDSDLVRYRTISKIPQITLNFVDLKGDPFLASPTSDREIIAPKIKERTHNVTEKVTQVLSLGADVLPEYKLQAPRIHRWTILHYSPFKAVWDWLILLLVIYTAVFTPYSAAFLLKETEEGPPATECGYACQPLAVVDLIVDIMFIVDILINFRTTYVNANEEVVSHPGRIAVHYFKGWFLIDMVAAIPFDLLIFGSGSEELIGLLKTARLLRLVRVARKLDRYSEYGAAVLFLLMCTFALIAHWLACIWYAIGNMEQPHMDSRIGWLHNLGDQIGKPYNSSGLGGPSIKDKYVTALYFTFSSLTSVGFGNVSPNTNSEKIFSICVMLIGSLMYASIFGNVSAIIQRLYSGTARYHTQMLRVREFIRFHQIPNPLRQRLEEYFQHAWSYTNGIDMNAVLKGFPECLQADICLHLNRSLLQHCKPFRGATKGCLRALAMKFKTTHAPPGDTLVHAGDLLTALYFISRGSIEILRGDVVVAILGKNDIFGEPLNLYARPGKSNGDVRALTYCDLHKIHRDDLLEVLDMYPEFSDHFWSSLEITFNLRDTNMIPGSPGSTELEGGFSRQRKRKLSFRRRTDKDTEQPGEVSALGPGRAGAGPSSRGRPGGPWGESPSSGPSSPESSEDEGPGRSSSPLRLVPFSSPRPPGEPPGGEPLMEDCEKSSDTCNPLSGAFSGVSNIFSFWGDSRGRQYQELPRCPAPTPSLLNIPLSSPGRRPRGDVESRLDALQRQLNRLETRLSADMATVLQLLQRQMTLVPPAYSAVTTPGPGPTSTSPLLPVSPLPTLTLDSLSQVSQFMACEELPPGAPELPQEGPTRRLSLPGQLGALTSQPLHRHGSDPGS

Prothrombin = Prothrombin (Homo sapiens, UniProt P00734); assay: Inhibition of thrombin
[4] = Inhibition of trypsin
[5] = target: Tissue-type plasminogen activator (Homo sapiens, UniProt P00750); assay: Inhibition of tissue plasminogen activator
Chain of Tissue-type plasminogen activator (P00750 whole entry): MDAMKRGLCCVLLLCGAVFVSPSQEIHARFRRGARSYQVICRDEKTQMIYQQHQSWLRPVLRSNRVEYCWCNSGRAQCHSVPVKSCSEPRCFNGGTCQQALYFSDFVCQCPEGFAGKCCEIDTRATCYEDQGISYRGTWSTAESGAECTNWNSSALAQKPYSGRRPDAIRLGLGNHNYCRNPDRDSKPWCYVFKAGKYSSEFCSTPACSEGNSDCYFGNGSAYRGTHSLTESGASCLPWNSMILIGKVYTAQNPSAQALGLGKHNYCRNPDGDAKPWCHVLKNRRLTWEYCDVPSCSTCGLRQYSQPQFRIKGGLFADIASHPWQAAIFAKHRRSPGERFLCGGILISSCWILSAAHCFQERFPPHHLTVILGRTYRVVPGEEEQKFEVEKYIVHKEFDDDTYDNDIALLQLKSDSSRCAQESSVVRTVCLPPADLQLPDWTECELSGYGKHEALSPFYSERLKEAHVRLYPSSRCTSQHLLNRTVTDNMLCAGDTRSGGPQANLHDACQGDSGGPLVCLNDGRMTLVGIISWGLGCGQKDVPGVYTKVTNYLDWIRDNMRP

[6] = target: Vitamin K-dependent protein C (Homo sapiens, UniProt P04070); assay: Inhibition of activated anticoagulant protein C
Chain of Vitamin K-dependent protein C (P04070 43-197 limits assumed): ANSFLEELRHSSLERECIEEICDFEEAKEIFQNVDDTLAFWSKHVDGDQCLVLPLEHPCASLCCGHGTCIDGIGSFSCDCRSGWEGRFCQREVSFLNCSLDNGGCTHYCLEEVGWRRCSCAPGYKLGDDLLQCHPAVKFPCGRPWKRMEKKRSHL
Chain of Vitamin K-dependent protein C (P04070 212-461 limits assumed): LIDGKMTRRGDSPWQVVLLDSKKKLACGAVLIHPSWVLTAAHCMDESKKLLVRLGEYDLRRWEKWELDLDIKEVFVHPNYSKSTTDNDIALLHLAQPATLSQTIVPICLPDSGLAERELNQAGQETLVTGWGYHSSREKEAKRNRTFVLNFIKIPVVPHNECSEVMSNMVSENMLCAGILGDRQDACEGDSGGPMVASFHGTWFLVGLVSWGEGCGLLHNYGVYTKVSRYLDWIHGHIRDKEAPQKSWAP

Plasminogen = Plasminogen (Homo sapiens, UniProt P00747); assay: Inhibition of plasmin
Chain of Plasminogen (P00747 97-580 limits assumed): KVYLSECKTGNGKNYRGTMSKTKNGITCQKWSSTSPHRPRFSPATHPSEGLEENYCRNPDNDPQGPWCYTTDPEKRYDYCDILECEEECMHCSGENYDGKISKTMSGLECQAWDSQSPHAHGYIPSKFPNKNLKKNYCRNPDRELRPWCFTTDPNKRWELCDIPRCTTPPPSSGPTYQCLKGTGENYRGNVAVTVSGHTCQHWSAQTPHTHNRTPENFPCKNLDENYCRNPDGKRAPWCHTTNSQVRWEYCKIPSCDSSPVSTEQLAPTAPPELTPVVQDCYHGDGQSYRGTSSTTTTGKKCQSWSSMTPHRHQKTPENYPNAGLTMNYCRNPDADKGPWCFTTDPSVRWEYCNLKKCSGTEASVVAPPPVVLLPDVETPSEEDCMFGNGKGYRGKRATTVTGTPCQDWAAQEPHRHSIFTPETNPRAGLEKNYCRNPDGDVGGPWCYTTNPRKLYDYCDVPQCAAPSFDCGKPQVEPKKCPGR
Chain of Plasminogen (P00747 581-810 limits assumed): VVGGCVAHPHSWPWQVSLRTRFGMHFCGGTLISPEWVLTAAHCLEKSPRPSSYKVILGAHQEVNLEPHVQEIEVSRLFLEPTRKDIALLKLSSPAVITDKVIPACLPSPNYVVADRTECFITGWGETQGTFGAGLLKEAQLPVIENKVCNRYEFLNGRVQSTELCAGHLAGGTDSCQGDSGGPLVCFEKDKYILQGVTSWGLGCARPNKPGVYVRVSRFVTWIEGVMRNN

[7] = Inhibition of kallikrein
[8] = Oral bioavailability in rat at 6 mg/kg; type: ADME, organism-based; settings: in vivo
[9] = Half life in rat at 0.2 mg/kg, iv and 6 mg/kg, po; type: ADME, organism-based; settings: in vivo
[10] = Clearance in rat at 0.2 mg/kg, iv and 6 mg/kg, po; type: ADME, organism-based; settings: in vivo
[11] = Volume of distribution in rat at 0.2 mg/kg, iv and 6 mg/kg, po; type: ADME, organism-based; settings: in vivo
[12] = AUC in rat at 6 mg/kg, po; type: ADME, organism-based; set-up: dose 6 mg/kg, route oral; settings: plasma
[13] = Oral bioavailability in Beagle dog at 1 mg/kg; type: ADME, organism-based, Canis lupus familiaris; settings: in vivo
[14] = Half life in Beagle dog at 0.1 mg/kg, iv and 1 mg/kg, po; type: ADME, organism-based, Canis lupus familiaris; settings: in vivo
[15] = Clearance in Beagle dog at 0.1 mg/kg, iv and 1 mg/kg, po; type: ADME, organism-based, Canis lupus familiaris; settings: in vivo
[16] = Volume of distribution in Beagle dog at 0.1 mg/kg, iv and 1 mg/kg, po; type: ADME, organism-based, Canis lupus familiaris; settings: in vivo
[17] = AUC in Beagle dog at 1 mg/kg, po; type: ADME, organism-based, Canis lupus familiaris; set-up: dose 1 mg/kg, route oral; settings: plasma
[18] = Oral bioavailability in cynomolgus monkey at 1 mg/kg; type: ADME, organism-based, Macaca fascicularis; settings: in vivo
[19] = Half life in cynomolgus monkey at 0.1 mg/kg, iv and 1 mg/kg, po; type: ADME, organism-based, Macaca fascicularis; settings: in vivo
[20] = Clearance in cynomolgus monkey at 0.1 mg/kg, iv and 1 mg/kg, po; type: ADME, organism-based, Macaca fascicularis; settings: in vivo
[21] = Volume of distribution in cynomolgus monkey at 0.1 mg/kg, iv and 1 mg/kg, po; type: ADME, organism-based, Macaca fascicularis; settings: in vivo
[22] = AUC in cynomolgus monkey at 1 mg/kg, po; type: ADME, organism-based, Macaca fascicularis; set-up: dose 1 mg/kg, route oral; settings: plasma
[23] = target: T1, Voltage-gated inwardly rectifying potassium channel KCNH2
[24] = Metabolic stability in human liver S9 fraction at 1 uM by HPLC; type: ADME, subcellular
[25] = Metabolic stability in rat liver S9 fraction at 1 uM by HPLC; type: ADME, subcellular
[26] = Clearance in rat; type: ADME, organism-based; settings: in vivo
[27] = Half life in rat; type: ADME, organism-based; settings: in vivo

Chain of Coagulation factor X (P00742 41-179 limits assumed): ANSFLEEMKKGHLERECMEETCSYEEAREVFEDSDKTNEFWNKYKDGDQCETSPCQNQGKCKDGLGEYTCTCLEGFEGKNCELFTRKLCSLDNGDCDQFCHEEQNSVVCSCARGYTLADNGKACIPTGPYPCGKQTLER
Chain of Coagulation factor X (P00742 235-488 limits assumed): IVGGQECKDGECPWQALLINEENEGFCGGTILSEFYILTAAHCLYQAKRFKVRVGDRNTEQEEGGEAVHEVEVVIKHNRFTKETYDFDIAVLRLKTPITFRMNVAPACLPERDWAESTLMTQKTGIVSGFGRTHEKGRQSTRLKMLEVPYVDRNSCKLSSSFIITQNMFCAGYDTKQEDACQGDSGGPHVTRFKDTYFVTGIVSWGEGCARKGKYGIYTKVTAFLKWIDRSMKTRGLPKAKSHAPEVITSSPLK

COc1ccc(NC(=O)c2ccc(C(=N)N(C)C)cc2N2CCC(C(=O)O)CC2)c(C(=O)Nc2ccc(Cl)cn2)c1
IC50 (Coagulation factor X): 0.9 nM
bioavailability [1]: < 5%

CN(C)C(=N)c1ccc(C(=O)Nc2ccc(Cl)cc2C(=O)Nc2ccc(Cl)cn2)c(N2CCCCC2)c1
IC50 (Coagulation factor X): < 0.5 nM
bioavailability [1]: 21.3%

COc1ccc(NC(=O)c2ccc(C(=N)N(C)C)cc2N2CCCCC2)c(C(=O)Nc2ccc(Cl)cn2)c1
IC50 (Coagulation factor X): 2 nM

CN(C)C(=N)c1ccc(C(=O)Nc2ccc(OCC(=O)O)cc2C(=O)Nc2ccc(Cl)cn2)cc1
IC50 (Coagulation factor X): 6 nM
bioavailability [1]: < 5%

CN(C)C(=N)c1ccc(C(=O)Nc2ccc(Cl)cc2C(=O)Nc2ccc(Cl)cn2)cc1
fraction unbound at 0.5 h, 10 µM [2]: 0.881
IC50 [3]: 330 nM
IC50 (Prothrombin): > 10 µM
IC50 [4]: > 10 µM
IC50 [5]: > 10 µM
IC50 [6]: > 10 µM
IC50 (Plasminogen): > 10 µM
IC50 [7]: 510 nM
bioavailability [8]: 26.1%
half-life [9]: 768 min
clearance [10]: 29.7 mL/min/kg
Vd [11]: 26.1 L/kg
AUC [12]: 885 ng·h/mL
bioavailability [13]: 64.9%
half-life [14]: 918 min
clearance [15]: 34 mL/min/kg
Vd [16]: 45.7 L/kg
AUC [17]: 320 ng·h/mL
bioavailability [18]: 73%
half-life [19]: 1160 min
clearance [20]: 26.7 mL/min/kg
Vd [21]: 36.5 L/kg
AUC [22]: 512 ng·h/mL
Ki [23]: 110 nM

CN(C)C(=N)c1ccc(C(=O)Nc2ccc(Cl)cc2C(=O)Nc2ccc(Cl)cn2)c(N2CCC(C(=O)O)CC2)c1
IC50 (Coagulation factor X): 0.7 nM

N=C(c1ccc(C(=O)Nc2ccc(Cl)cc2C(=O)Nc2ccc(Cl)cn2)cc1)N1CCC(C(=O)O)CC1
IC50 (Coagulation factor X): 2 nM

Cc1ccc(NC(=O)c2cc(Cl)ccc2NC(=O)c2ccc(C(=N)N(C)C)cc2)nc1
IC50 (Coagulation factor X): 1.1 nM

CN(C)C(=N)c1ccc(C(=O)Nc2ccc(Cl)cc2C(=O)Nc2ccc(Cl)nc2)cc1
IC50 (Coagulation factor X): 3 nM

CN(C)C(=N)c1ccc(C(=O)Nc2ccc(Cl)cc2C(=O)Nc2ccc(Cl)cc2)cc1
IC50 (Coagulation factor X): 0.7 nM

COc1cc(C(=O)Nc2ccc(Cl)cc2C(=O)Nc2ccc(Cl)cn2)ccc1C(=N)N(C)C
IC50 (Coagulation factor X): 7 nM

CN(C)C(=N)c1ccc(C(=O)Nc2ccc(Cl)cc2C(=O)Nc2ccc(Cl)cn2)c(N2CCCC2)c1
IC50 (Coagulation factor X): 2 nM
bioavailability [1]: 6.9%

C#Cc1ccc(NC(=O)c2cc(Cl)ccc2NC(=O)c2ccc(C(=N)N(C)C)cc2)cc1
IC50 (Coagulation factor X): 0.9 nM

CN(C)C(=N)c1ccc(C(=O)Nc2ccc(Cl)cc2C(=O)Nc2ccc(Cl)s2)cc1
IC50 (Coagulation factor X): 6 nM

CN(C)C(=N)c1ccc(C(=O)Nc2ccc(Cl)cc2C(=O)Nc2ccc(Cl)cn2)cc1F
IC50 (Coagulation factor X): 1.1 nM

CN(C)C(=N)c1ccc(C(=O)Nc2c(Cl)cccc2C(=O)Nc2ccc(Cl)cn2)cc1
IC50 (Coagulation factor X): 21 nM

CN(C)C(=N)c1ccc(C(=O)Nc2ccc(Cl)cc2C(=O)Nc2ccc(Cl)cn2)c(N2CCOCC2)c1
IC50 (Coagulation factor X): 0.7 nM

CN(C)C(=N)c1ccc(C(=O)Nc2ccc(Cl)cc2C(=O)Nc2ccc(Cl)cn2)c(N2CCCCCC2)c1
IC50 (Coagulation factor X): 1 nM

CCSc1ccc(NC(=O)c2ccc(C(=N)N(C)C)cc2)c(C(=O)Nc2ccc(Cl)cn2)c1
IC50 (Coagulation factor X): 1.3 nM

CSc1ccc(NC(=O)c2ccc(C(=N)N(C)C)cc2)c(C(=O)Nc2ccc(Cl)cn2)c1
IC50 (Coagulation factor X): < 0.5 nM
half-life at 1 µM [24]: > 120 min
half-life at 1 µM [25]: > 120 min
clearance [26]: 77.1 mL/min/kg
half-life [27]: 990 min
bioavailability [1]: 26.7%

CN(C)C(=N)c1ccc(C(=O)Nc2ccc(S(C)(=O)=O)cc2C(=O)Nc2ccc(Cl)cn2)cc1
IC50 (Coagulation factor X): 1.5 nM

CN(C)C(=N)c1ccc(C(=O)Nc2ccsc2C(=O)Nc2ccc(Cl)cn2)cc1
IC50 (Coagulation factor X): 2 nM

CCOc1cc(Cl)cc(C(=O)Nc2ccc(Cl)cn2)c1NC(=O)c1ccc(C(=N)N(C)C)cc1
IC50 (Coagulation factor X): 0.6 nM

COc1cc(C(=N)N(C)C)ccc1C(=O)Nc1ccc(Cl)cc1C(=O)Nc1ccc(Cl)cn1
IC50 (Coagulation factor X): 0.5 nM

COCCOc1cc(C(=N)N(C)C)ccc1C(=O)Nc1ccc(Cl)cc1C(=O)Nc1ccc(Cl)cn1
IC50 (Coagulation factor X): 1.2 nM

CCN(C)c1cc(Cl)cc(C(=O)Nc2ccc(Cl)cn2)c1NC(=O)c1ccc(C(=N)N(C)C)cc1
IC50 (Coagulation factor X): 0.5 nM

CN(C)C(=N)c1ccc(C(=O)Nc2ccc(Cl)cc2C(=O)Nc2ccc(Cl)cn2)c(F)c1
IC50 (Coagulation factor X): < 0.5 nM
Ki (Coagulation factor X): 0.06 nM
IC50 (Prothrombin): > 10 µM
IC50 [4]: > 10 µM
IC50 [5]: > 10 µM
IC50 [6]: > 10 µM
IC50 (Plasminogen): > 10 µM
IC50 [7]: 540 nM
bioavailability [8]: 38%
half-life [9]: 312 min
clearance [10]: 15.3 mL/min/kg
Vd [11]: 6.9 L/kg
AUC [12]: 2420 ng·h/mL
bioavailability [13]: 68.8%
half-life [14]: 786 min
clearance [15]: 30.5 mL/min/kg
Vd [16]: 35.1 L/kg
AUC [17]: 381 ng·h/mL
bioavailability [18]: 86.1%
half-life [19]: 1370 min
clearance [20]: 11.2 mL/min/kg
Vd [21]: 20.5 L/kg
AUC [22]: 1300 ng·h/mL
clearance [26]: 15.3 mL/min/kg
bioavailability [1]: 38%
Ki [23]: 420 nM

COCCN(C)c1cc(Cl)cc(C(=O)Nc2ccc(Cl)cn2)c1NC(=O)c1ccc(C(=N)N(C)C)cc1
IC50 (Coagulation factor X): 1.2 nM
bioavailability [1]: 8.1%
